Results published in patent US12077503B2, “Substituted cyclic amides and their use as herbicides” (FMC CORPORATION, priority 2015, dated 2024).
Read-outs that look alike come from different tables or passages of the source.

Columns and labels:
[1] = system: wheat (Triticum aestivum); assay: Test A postemergence; format: in vivo; conditions: Triticum aestivum, post-emergence, 240 h, Postemergence; for plant injury at 125 g/ha: 125 g ai/ha; for plant injury at 500 g/ha: 500 g ai/ha, visual injury, 0 to 100 scale (0 no effect, 100 complete control), approx. 10 d
How it was run: (§1)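 Treatment is preemergence as a directed soil spray after planting, or postemergence at the one- to two-leaf stage, with test chemical in a non-phytotoxic solvent mixture plus surfactant. Plants stay in the greenhouse about 10 d before visual injury scoring on a 0 to 100 scale versus untreated controls.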

[2] = system: giant foxtail (Setaria faberii); assay: Test A postemergence; format: in vivo; conditions: Setaria faberi, post-emergence, 240 h, Postemergence; for pest or weed control at 125 g/ha: 125 g ai/ha; for pest or weed control at 500 g/ha: 500 g ai/ha, visual injury, 0 to 100 scale (0 no effect, 100 complete control), approx. 10 d
How it was run: as §1

[3] = system: ryegrass, Italian (Italian ryegrass, Lolium multiflorum); assay: Test A postemergence; format: in vivo; conditions: Lolium multiflorum, post-emergence, 240 h, Postemergence; for pest or weed control at 125 g/ha: 125 g ai/ha; for pest or weed control at 500 g/ha: 500 g ai/ha, visual injury, 0 to 100 scale (0 no effect, 100 complete control), approx. 10 d
How it was run: as §1

[4] = system: ragweed (common ragweed, Ambrosia elatior); assay: Test A postemergence; format: in vivo; conditions: Ambrosia artemisiifolia, post-emergence, 240 h, Postemergence; for pest or weed control at 125 g/ha: 125 g ai/ha; for pest or weed control at 500 g/ha: 500 g ai/ha, visual injury, 0 to 100 scale (0 no effect, 100 complete control), approx. 10 d
How it was run: as §1

[5] = system: blackgrass (Alopecurus myosuroides); assay: Test A postemergence; format: in vivo; conditions: Alopecurus myosuroides, post-emergence, 240 h, Postemergence; for pest or weed control at 125 g/ha: 125 g ai/ha; for pest or weed control at 500 g/ha: 500 g ai/ha, visual injury, 0 to 100 scale (0 no effect, 100 complete control), approx. 10 d
How it was run: as §1

[6] = system: barnyardgrass (Echinochloa crus-galli); assay: Test A postemergence; format: in vivo; conditions: Echinochloa crus-galli, post-emergence, 240 h, Postemergence; for pest or weed control at 125 g/ha: 125 g ai/ha; for pest or weed control at 500 g/ha: 500 g ai/ha, visual injury, 0 to 100 scale (0 no effect, 100 complete control), approx. 10 d
How it was run: as §1

[7] = system: giant foxtail (Setaria faberi); assay: Test G Pre-Emergence Protocol; format: in vivo; conditions: Setaria faberi, pre-emergence, 312 h, evaluated after 13 days
How it was run: (§2)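 Under a 24/16° C day/night regime with 14 h light and 65% humidity, sown pots were sprayed after one day with compound (15.625, 62.5 or 250 g/ha; 50:50 acetone/water, 0.5% Tween 20). Damage was assessed visually 13 days later, 0 to 100.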

[8] = system: velvetleaf (Abutilon theophrasti); assay: Test G Pre-Emergence Protocol; format: in vivo; conditions: Abutilon theophrasti, pre-emergence, 312 h, evaluated after 13 days
How it was run: as §2

[9] = system: ivy-leaved morning glory (Ipomoea hederacea); assay: Test G Pre-Emergence Protocol; format: in vivo; conditions: Ipomoea, pre-emergence, 312 h, evaluated after 13 days
How it was run: as §2

[10] = system: corn (Zea mays); assay: Test G Pre-Emergence Protocol; format: in vivo; conditions: Zea mays, pre-emergence, 312 h, evaluated after 13 days
How it was run: as §2

[11] = system: redroot pigweed (Amaranthus retroflexus); assay: Test G Pre-Emergence Protocol; format: in vivo; conditions: Amaranthus retroflexus, pre-emergence, 312 h, evaluated after 13 days
How it was run: as §2

[12] = system: barnyardgrass (Echinochloa crus-galli); assay: Test G Pre-Emergence Protocol; format: in vivo; conditions: Echinochloa crus-galli, pre-emergence, 312 h, evaluated after 13 days
How it was run: as §2

[13] = visual rating about 10 d after treatment, read-out: Wheat plant response rating (0 to 100 scale)
[14] = read-out: Plant response rating, Wheat
[15] = visual rating about 10 d after treatment, read-out: Foxtail, Giant plant response rating (0 to 100 scale)
[16] = read-out: Plant response rating, Foxtail, Giant
[17] = visual rating about 10 d after treatment, read-out: Ryegrass, Italian plant response rating (0 to 100 scale)
[18] = read-out: Plant response rating, Ryegrass, Italian
[19] = visual rating about 10 d after treatment, read-out: Ragweed plant response rating (0 to 100 scale)
[20] = read-out: Plant response rating, Ragweed
[21] = visual rating about 10 d after treatment, read-out: Blackgrass plant response rating (0 to 100 scale)
[22] = read-out: Plant response rating, Blackgrass
[23] = visual rating about 10 d after treatment, read-out: Barnyardgrass plant response rating (0 to 100 scale, 0 no effect, 100 complete control)
[24] = read-out: Plant response rating, Barnyardgrass
[25] = visual injury after approx. 10 d, 0 to 100 scale, 0 no effect, 100 complete control, read-out: Plant response rating, Wheat
[26] = visual injury after approx. 10 d, 0 to 100 scale, 0 no effect, 100 complete control, read-out: Plant response rating, Foxtail, Giant
[27] = visual injury after approx. 10 d, 0 to 100 scale, 0 no effect, 100 complete control, read-out: Plant response rating, Ryegrass, Italian
[28] = visual injury after approx. 10 d, 0 to 100 scale, 0 no effect, 100 complete control, read-out: Plant response rating, Ragweed
[29] = visual injury after approx. 10 d, 0 to 100 scale, 0 no effect, 100 complete control, read-out: Plant response rating, Blackgrass
[30] = visual injury after approx. 10 d, 0 to 100 scale, 0 no effect, 100 complete control, read-out: Plant response rating, Barnyardgrass

Row | Structure (SMILES) | melting point [°C] | plant injury at 125 g/ha [1, 13] [%] | plant injury at 500 g/ha [1, 14] [%] | pest or weed control at 125 g/ha [2, 15] [%] | pest or weed control at 500 g/ha [2, 16] [%] | pest or weed control at 500 g/ha [3, 18] [%] | pest or weed control at 500 g/ha [4, 20] [%] | pest or weed control at 500 g/ha [5, 22] [%] | pest or weed control at 125 g/ha [6, 23] [%] | pest or weed control at 500 g/ha [6, 24] [%] | further results
1 | CN1CC[C@H](c2cccc(C(F)(F)F)c2)[C@@H](C(=O)Nc2ccccc2F)C1=O [Compound 1331] | 113 to 116 | 0 | 50 | 90 | 90 | 0 | 0 | 50 | 90 | 90 | pest or weed control at 125 g/ha [3, 17]: 0%; pest or weed control at 125 g/ha [4, 19]: 0%; pest or weed control at 125 g/ha [5, 21]: 20%
2 | CN1C[C@H](c2ccc(C(F)(F)F)nc2)[C@@H](C(=O)Nc2cccc(F)c2F)C1=O [Compound 1372] | 188.1 to 192.4 | 70 | 90 | 90 | 90 | 30 | 60 | 70 | – | – | pest or weed control at 125 g/ha [3, 17]: 20%; pest or weed control at 125 g/ha [4, 19]: 60%; pest or weed control at 125 g/ha [5, 21]: 50%
3 | O=C1NCC(c2ccccc2)C1C(=O)Nc1ccccc1 (stereo not shown) [Compound 1358] | 180 to 181 | 0 | 0 | 0 | 0 | – | – | – | 0 | 0 | –
4 | N#Cc1ccc(NC(=O)C2C(=O)NCC2c2ccccc2)cc1 (stereo not shown) [Compound 1355] | 186 to 188 | 0 | 0 | 0 | 0 | – | – | – | 0 | 0 | –
5 | Cc1c(NC(=O)[C@@H]2C(=O)N(C)C[C@H]2c2ccc(C(F)(F)F)cc2)ccc(F)c1F (racemic) [Compound 1502] | – | – | – | – | – | – | – | – | – | – | pest or weed control at 15.625 g/ha ([7]; 15.625 g ai/ha, read-out: Foxtail, Giant damage rating (100=total damage to plant; 0=no damage to plant)): 60%; pest or weed control at 62.5 g/ha ([7]; 62.5 g ai/ha, 100=total damage to plant, 0=no damage to plant, read-out: plant damage rating, Foxtail, Giant): 90%; pest or weed control at 250 g/ha ([7]; 250 g ai/ha, read-out: Foxtail, Giant damage rating (100=total damage to plant; 0=no damage to plant)): 90%; pest or weed control at 15.625 g/ha ([8]; 15.625 g ai/ha, read-out: Velvetleaf damage rating (100=total damage to plant; 0=no damage to plant)): 0%; pest or weed control at 62.5 g/ha ([8]; 62.5 g ai/ha, 100=total damage to plant, 0=no damage to plant, read-out: plant damage rating, Velvetleaf): 0%; pest or weed control at 250 g/ha ([8]; 250 g ai/ha, read-out: Velvetleaf damage rating (100=total damage to plant; 0=no damage to plant)): 10%; pest or weed control at 15.625 g/ha ([9]; 15.625 g ai/ha, read-out: Morning-glory, Ivy-leaved damage rating (100=total damage to plant; 0=no damage to plant)): 0%; pest or weed control at 62.5 g/ha ([9]; 62.5 g ai/ha, 100=total damage to plant, 0=no damage to plant, read-out: plant damage rating, Morningglory, Ivy-leaved): 0%; pest or weed control at 250 g/ha ([9]; 250 g ai/ha, read-out: Morningglory, Ivy-leaved damage rating (100=total damage to plant; 0=no damage to plant)): 0%; plant injury at 15.625 g/ha ([10]; 15.625 g ai/ha, read-out: Corn damage rating (100=total damage to plant; 0=no damage to plant)): 0%; plant injury at 62.5 g/ha ([10]; 62.5 g ai/ha, 100=total damage to plant, 0=no damage to plant, read-out: plant damage rating, Corn): 0%; plant injury at 250 g/ha ([10]; 250 g ai/ha, read-out: Corn damage rating (100=total damage to plant; 0=no damage to plant)): 50%; pest or weed control at 15.625 g/ha ([11]; 15.625 g ai/ha, read-out: Pigweed, Redroot damage rating (100=total damage to plant; 0=no damage to plant)): 0%; pest or weed control at 62.5 g/ha ([11]; 62.5 g ai/ha, 100=total damage to plant, 0=no damage to plant, read-out: plant damage rating, Pigweed, Redroot): 20%; pest or weed control at 250 g/ha ([11]; 250 g ai/ha, read-out: Pigweed, Redroot damage rating (100=total damage to plant; 0=no damage to plant)): 70%; pest or weed control at 15.625 g/ha ([12]; 15.625 g ai/ha, read-out: Barnyard grass damage rating (100=total damage to plant; 0=no damage to plant)): 20%; pest or weed control at 62.5 g/ha ([12]; 62.5 g ai/ha, 100=total damage to plant, 0=no damage to plant, read-out: plant damage rating, Barnyardgrass): 60%; pest or weed control at 250 g/ha ([12]; 250 g ai/ha, read-out: Barnyardgrass damage rating (100=total damage to plant; 0=no damage to plant)): 80%

Further lines, with some results ahead:

Row | melting point [°C] | Structure (SMILES) | plant injury at 125 g/ha [1, 13] [%] | plant injury at 500 g/ha [1, 14] [%] | pest or weed control at 125 g/ha [2, 15] [%] | pest or weed control at 500 g/ha [2, 16] [%] | pest or weed control at 500 g/ha [3, 18] [%] | pest or weed control at 500 g/ha [4, 20] [%] | pest or weed control at 500 g/ha [5, 22] [%] | pest or weed control at 125 g/ha [6, 23] [%] | pest or weed control at 500 g/ha [6, 24] [%] | further results
6 | 206 to 209 | O=C1NC[C@H](c2cncc(C(F)(F)F)c2)[C@H]1C(=O)Nc1cccc(F)c1F [Compound 1394] | – | 60 | – | 90 | 20 | 20 | 60 | – | 90 | plant injury at 125 g/ha [1, 25]: 0%; pest or weed control at 125 g/ha [2, 26]: 80%; pest or weed control at 125 g/ha [3, 27]: 0%; pest or weed control at 125 g/ha [4, 28]: 0%; pest or weed control at 125 g/ha [5, 29]: 0%; pest or weed control at 125 g/ha [6, 30]: 90%
7 | 139 to 142 | O=C1NC[C@H](c2cccc(C(F)(F)F)n2)[C@H]1C(=O)Nc1cccc(F)c1F [Compound 1385] | – | 20 | – | 90 | 20 | 0 | 20 | – | 90 | plant injury at 125 g/ha [1, 25]: 0%; pest or weed control at 125 g/ha [2, 26]: 70%; pest or weed control at 125 g/ha [3, 27]: 0%; pest or weed control at 125 g/ha [4, 28]: 0%; pest or weed control at 125 g/ha [5, 29]: 20%; pest or weed control at 125 g/ha [6, 30]: 80%
